From article PMC4481117 (Molecular Pain, 2015)

Assays:
LFA-1 (αLβ2, CD11a/CD18) = test: Adhesion of LFA-1-expressing HEK293 cells to immobilized peptide; format: cell-based, Human; settings: peptide immobilized at 10 μM, 30 min at 37 °C
Procedure: (§1) Fig. 3 Adhesion of Mac-1-expressing cells to Dyn A and Dyn B. a, Mac-1-expressing and wild-type HEK293 cells were labeled with calcein and 5x10^4 cells were added to the wells coated with different concentrations of the Dyn A. After 30 min at 37 °C, nonadherent cells were removed and fluorescence was measured. The data shown are means of triplicate determinations, and error bars represent S.E. The figure is representative of 8 experiments. b , adhesion of HEK293 cells expressing Mac-1, LFA and the I-less form of Mac-1 to Dyn A and Dyn B immobilized at 10 μM was determined as described in A. c, calcein-labeled Mac-1-HEK293 cells were preincubated without or with 10 μg/ml of anti-αM mAb 44a or 1 μg/ml NIF for 15 minutes. For testing the role of glucosaminoglycans in cell adhesion, dynorphin A-coated wells were preincubated with 100 μl of 10 μg/ml of chondroitin sulfate A, chondroitin sulfate B and heparin. […]
(§2) Adhesion assays were performed essentially as described previously. […] Fluorescence was measured in a CytoFluorII fluorescence plate reader (Perceptive Biosystems, Framingham, MA). […] After aspirating the solution, labeled cells were added and cell adhesion was analyzed as above.

[1] = test system: μ- and δ-opioid receptors; parameters: method as in PMID 8624732; settings: cited from earlier work
wild-type HEK293 cells = test: Transwell migration of wild-type HEK293 cells to Dyn A; format: cell-based, Human; settings: 16 h at 37 °C
Procedure: Fig. 6 Migration of Mac-1-expressing cells to Dyn A in a Transwell system. a, Mac-1-expressing HEK 293 cells (100 μl at 3 × 10^6 cell/ml) were added to the upper wells of the transwell chamber and their ability to migrate to different concentrations of Dyn A placed in the lower chamber was analyzed. After 16 hours at 37 °C, migrated cells were fixed, stained, and counted. Data are presented as numbers of migrated cells per field ± S.E. for five random fields per well. The figure is representative of 5 experiments. b, Mac-1-expressing or wild-type HEK 293 cells were added to the upper wells of the transwell chamber and their ability to migrate to 10 μM Dyn A placed in the lower chamber was analyzed as in A. Some Mac-1-HEK293 cells were pretreated with 20 μg/ml of mAbs 44a (anti-αM), IB4 (anti-β2) or OKM1 (non function-blocking anti-αM) or medium alone before addition to the upper wells. ***, medium alone. […] The number of migrated cells was determined as in A. Data are presented as number of migrated cells per field ± S.E. for five random fields per well. […]
Migration assays with wild-type and Mac-1-expressing HEK293 cells and purified macrophages using Transwell inserts (5 μm pore size) were performed as previously described. […] The photographs were taken using a 20x objective and cells in […] and cells were counted. […]

I-less form of Mac-1 = test: Adhesion of HEK293 cells expressing the I-less form of Mac-1; format: cell-based, Human; settings: peptide immobilized at 10 μM, 30 min at 37 °C
Procedure: as §1, §2

Question: For `CC[C@H](C)[C@H](NC(=O)[C@H](CCCNC(=N)N)NC(=O)[C@H](CCCNC(=N)N)NC(=O)[C@H](CC(C)C)NC(=O)[C@H](Cc1ccccc1)NC(=O)CNC(=O)CNC(=O)[C@@H](N)Cc1ccc(O)cc1)C(=O)N[C@@H](CCCNC(=N)N)C(=O)N1CCC[C@H]1C(=O)N[C@@H](CCCCN)C(=O)N[C@@H](CC(C)C)C(=O)N[C@@H](CCCCN)C(=O)N[C@@H](Cc1c[nH]c2ccccc12)C(=O)N[C@@H](CC(=O)O)C(=O)N[C@@H](CC(N)=O)C(=O)N[C@@H](CCC(N)=O)C(=O)O` [Dyn A], which “Adhesion of LFA-1-HEK293 cells” value (LFA-1 (αLβ2, CD11a/CD18)) is on record?
Answer: 13 ± 2%

Question: What about the “μ- and δ-opioid receptor binding” value [1] of the same molecule?
Answer: can bind to μ- and δ-opioid receptors

Question: What about the “Migration of wild-type HEK293 cells (in words)” value (wild-type HEK293 cells) of the same molecule?
Answer: did not migrate

Question: What about the “Adhesion of HEK293 cells expressing the I-less form of Mac-1” value (I-less form of Mac-1) of the same molecule?
Answer: 7 ± 1%
